Key:
Assay in all cases: relative viability (nuclei count vs DMSO), 5 days (fraction); higher = more cells survive
[1] = compound: O=C(Nc1cc(C(F)(F)F)cc(C(F)(F)F)c1)c1cc(Cl)ccc1O [IMD-0354] + Cc1cc(Nc2cc(N3CCN(C)CC3)nc(Sc3ccc(NC(=O)C4CC4)cc3)n2)n[nH]1 [Tozasertib] (partner 0.1 µM)
Method in brief: (§1)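 The day after seeding in 1536-well plates, lung cancer cell lines were treated by pin tool with a single drug, or with a fixed anchor-drug dose together with five library-drug doses (not always all listed) in √10 steps. After 5 days, a combined fix-and-stain solution (final 0.05% Triton X-100, 1% formaldehyde, 1 ug/ml Hoechst) was added. Nuclei counted on 4× images gave relative viability as treated counts over vehicle counts, reported as the median of duplicate plates.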

[2] = compound: O=C(Nc1cc(C(F)(F)F)cc(C(F)(F)F)c1)c1cc(Cl)ccc1O [IMD-0354] + O=C(c1cc(Cc2n[nH]c(=O)c3ccccc23)ccc1F)N1CCN(C(=O)C2CC2)CC1 [Olaparib] (partner 8 µM)
Method in brief: as §1

[3] = compound: Cc1cnc(CNC(=O)c2c(=O)c3ccc(N4CCCN(C)CC4)nc3n3c2sc2ccccc23)cn1 [CX-5461] + COc1cc2c(Oc3ccc(NC(=O)C4(C(=O)Nc5ccc(F)cc5)CC4)cc3F)ccnc2cc1OCCCN1CCOCC1 [Foretinib] (partner 0.25 µM)
Method in brief: as §1

[4] = compound: Cc1cnc(CNC(=O)c2c(=O)c3ccc(N4CCCN(C)CC4)nc3n3c2sc2ccccc23)cn1 [CX-5461] + CS(=O)(=O)N1CCN(Cc2cc3nc(-c4cccc5[nH]ncc45)nc(N4CCOCC4)c3s2)CC1 [Pictilisib] (partner 1 µM)
Method in brief: as §1

NCI-H2342
relative viability ([1]; first compound 0.04 µM): 0.497
relative viability ([1]; first compound 0.1265 µM): 0.534
relative viability ([1]; first compound 0.4 µM): 0.471
relative viability ([1]; first compound 1.265 µM): 0.401
relative viability ([1]; first compound 4 µM): 0.377
relative viability ([2]; first compound 0.04 µM): 0.432
relative viability ([2]; first compound 0.1265 µM): 0.478
relative viability ([2]; first compound 0.4 µM): 0.356
relative viability ([2]; first compound 1.265 µM): 0.38
relative viability ([2]; first compound 4 µM): 0.432
relative viability ([3]; first compound 0.01 µM): 0.98
relative viability ([3]; first compound 0.03162 µM): 1.1
relative viability ([3]; first compound 0.1 µM): 1.07
relative viability ([3]; first compound 0.3162 µM): 1.03
relative viability ([3]; first compound 1 µM): 1.08

LK-2
relative viability ([1]; first compound 0.04 µM): 0.182
relative viability ([1]; first compound 0.1265 µM): 0.179
relative viability ([1]; first compound 0.4 µM): 0.207
relative viability ([1]; first compound 1.265 µM): 0.175
relative viability ([1]; first compound 4 µM): 0.131
relative viability ([2]; first compound 0.04 µM): 0.695
relative viability ([2]; first compound 0.1265 µM): 1.02
relative viability ([2]; first compound 1.265 µM): 0.526
relative viability ([2]; first compound 4 µM): 0.172
relative viability ([3]; first compound 0.01 µM): 1.17
relative viability ([3]; first compound 0.03162 µM): 0.942
relative viability ([3]; first compound 0.1 µM): 1.26
relative viability ([3]; first compound 1 µM): 1.24
relative viability ([4]; first compound 0.03162 µM): 0.623
relative viability ([4]; first compound 0.1 µM): 0.652
relative viability ([4]; first compound 1 µM): 0.492

SK-LU-1
relative viability ([1]; first compound 0.04 µM): 0.308
relative viability ([1]; first compound 0.1265 µM): 0.349
relative viability ([1]; first compound 0.4 µM): 0.304
relative viability ([1]; first compound 1.265 µM): 0.2
relative viability ([1]; first compound 4 µM): 0.189
relative viability ([2]; first compound 0.04 µM): 0.481
relative viability ([2]; first compound 0.1265 µM): 0.395
relative viability ([2]; first compound 0.4 µM): 0.325
relative viability ([2]; first compound 1.265 µM): 0.265
relative viability ([2]; first compound 4 µM): 0.205
relative viability ([3]; first compound 0.01 µM): 0.818
relative viability ([3]; first compound 0.03162 µM): 0.857
relative viability ([3]; first compound 0.1 µM): 0.736
relative viability ([3]; first compound 1 µM): 0.326
relative viability ([4]; first compound 0.01 µM): 0.659
relative viability ([4]; first compound 0.03162 µM): 0.616
relative viability ([4]; first compound 0.1 µM): 0.602
relative viability ([4]; first compound 0.3162 µM): 0.573
relative viability ([4]; first compound 1 µM): 0.417

HCC-366
relative viability ([1]; first compound 0.04 µM): 0.122
relative viability ([1]; first compound 0.1265 µM): 0.0913
relative viability ([1]; first compound 0.4 µM): 0.168
relative viability ([1]; first compound 1.265 µM): 0.0335
relative viability ([1]; first compound 4 µM): 0.031
relative viability ([2]; first compound 0.04 µM): 0.363
relative viability ([2]; first compound 0.1265 µM): 0.371
relative viability ([2]; first compound 0.4 µM): 0.231
relative viability ([2]; first compound 1.265 µM): 0.053
relative viability ([2]; first compound 4 µM): 0.0706
relative viability ([3]; first compound 0.01 µM): 1.03
relative viability ([3]; first compound 0.03162 µM): 0.913
relative viability ([3]; first compound 0.1 µM): 0.924
relative viability ([3]; first compound 0.3162 µM): 0.756
relative viability ([3]; first compound 1 µM): 0.931
relative viability ([4]; first compound 0.01 µM): 0.133
relative viability ([4]; first compound 0.03162 µM): 0.142
relative viability ([4]; first compound 0.1 µM): 0.142
relative viability ([4]; first compound 0.3162 µM): 0.0964
relative viability ([4]; first compound 1 µM): 0.162

201T
relative viability ([1]; first compound 0.04 µM): 1.14
relative viability ([1]; first compound 0.1265 µM): 0.996
relative viability ([1]; first compound 0.4 µM): 0.614
relative viability ([1]; first compound 1.265 µM): 1.06
relative viability ([1]; first compound 4 µM): 0.354
relative viability ([2]; first compound 0.04 µM): 0.872
relative viability ([2]; first compound 0.1265 µM): 0.833
relative viability ([2]; first compound 0.4 µM): 0.532
relative viability ([2]; first compound 1.265 µM): 0.849
relative viability ([2]; first compound 4 µM): 0.291
relative viability ([3]; first compound 0.01 µM): 1.06
relative viability ([3]; first compound 0.03162 µM): 1.05
relative viability ([3]; first compound 0.1 µM): 1.04
relative viability ([3]; first compound 0.3162 µM): 1.08
relative viability ([3]; first compound 1 µM): 0.74
relative viability ([4]; first compound 0.01 µM): 0.713
relative viability ([4]; first compound 0.03162 µM): 0.748
relative viability ([4]; first compound 0.1 µM): 0.753
relative viability ([4]; first compound 0.3162 µM): 0.708
relative viability ([4]; first compound 1 µM): 0.721

HCC-827
relative viability ([1]; first compound 0.04 µM): 0.437
relative viability ([1]; first compound 0.1265 µM): 0.458
relative viability ([1]; first compound 0.4 µM): 0.353
relative viability ([1]; first compound 1.265 µM): 0.353
relative viability ([1]; first compound 4 µM): 0.182
relative viability ([2]; first compound 0.04 µM): 0.55
relative viability ([2]; first compound 0.1265 µM): 0.614
relative viability ([2]; first compound 0.4 µM): 0.482
relative viability ([2]; first compound 1.265 µM): 0.372
relative viability ([2]; first compound 4 µM): 0.21
relative viability ([3]; first compound 0.01 µM): 1.08
relative viability ([3]; first compound 0.03162 µM): 1.09
relative viability ([3]; first compound 0.1 µM): 1.02
relative viability ([3]; first compound 0.3162 µM): 1.03
relative viability ([3]; first compound 1 µM): 1.06
relative viability ([4]; first compound 0.01 µM): 1.16
relative viability ([4]; first compound 0.03162 µM): 0.912
relative viability ([4]; first compound 0.1 µM): 1
relative viability ([4]; first compound 0.3162 µM): 0.87
relative viability ([4]; first compound 1 µM): 1.12

NCI-H647
relative viability ([1]; first compound 0.04 µM): 0.441
relative viability ([1]; first compound 0.1265 µM): 0.379
relative viability ([1]; first compound 0.4 µM): 0.223
relative viability ([1]; first compound 1.265 µM): 0.169
relative viability ([2]; first compound 0.04 µM): 0.67
relative viability ([2]; first compound 0.1265 µM): 0.485
relative viability ([2]; first compound 0.4 µM): 0.292
relative viability ([2]; first compound 1.265 µM): 0.0684
relative viability ([2]; first compound 4 µM): 0.113
relative viability ([3]; first compound 0.01 µM): 1.21
relative viability ([3]; first compound 0.03162 µM): 1.25
relative viability ([3]; first compound 0.1 µM): 1.26
relative viability ([3]; first compound 0.3162 µM): 1.05
relative viability ([3]; first compound 1 µM): 1
relative viability ([4]; first compound 0.01 µM): 0.429
relative viability ([4]; first compound 0.03162 µM): 0.459
relative viability ([4]; first compound 0.1 µM): 0.426
relative viability ([4]; first compound 0.3162 µM): 0.136
relative viability ([4]; first compound 1 µM): 0.28

NCI-H2023
relative viability ([1]; first compound 0.04 µM): 0.338
relative viability ([1]; first compound 0.1265 µM): 0.296
relative viability ([1]; first compound 0.4 µM): 0.23
relative viability ([1]; first compound 1.265 µM): 0.126
relative viability ([1]; first compound 4 µM): 0.117
relative viability ([2]; first compound 0.04 µM): 0.504
relative viability ([2]; first compound 0.1265 µM): 0.427
relative viability ([2]; first compound 0.4 µM): 0.315
relative viability ([2]; first compound 1.265 µM): 0.0756
relative viability ([2]; first compound 4 µM): 0.183
relative viability ([3]; first compound 0.01 µM): 0.954
relative viability ([3]; first compound 0.03162 µM): 0.71
relative viability ([3]; first compound 0.1 µM): 0.733
relative viability ([3]; first compound 0.3162 µM): 0.552
relative viability ([3]; first compound 1 µM): 0.108
relative viability ([4]; first compound 0.01 µM): 0.284
relative viability ([4]; first compound 0.03162 µM): 0.257
relative viability ([4]; first compound 0.3162 µM): 0.0857
relative viability ([4]; first compound 1 µM): 0.102

NCI-H520
relative viability ([1]; first compound 0.04 µM): 0.441
relative viability ([1]; first compound 0.1265 µM): 0.379
relative viability ([1]; first compound 0.4 µM): 0.385
relative viability ([1]; first compound 1.265 µM): 0.347
relative viability ([1]; first compound 4 µM): 0.229
relative viability ([2]; first compound 0.04 µM): 0.325
relative viability ([2]; first compound 0.1265 µM): 0.317
relative viability ([2]; first compound 0.4 µM): 0.318
relative viability ([2]; first compound 1.265 µM): 0.146
relative viability ([2]; first compound 4 µM): 0.189
relative viability ([3]; first compound 0.01 µM): 0.748
relative viability ([3]; first compound 0.03162 µM): 0.677
relative viability ([3]; first compound 0.1 µM): 0.721
relative viability ([3]; first compound 0.3162 µM): 0.503
relative viability ([3]; first compound 1 µM): 0.725
relative viability ([4]; first compound 0.01 µM): 0.218
relative viability ([4]; first compound 0.03162 µM): 0.299
relative viability ([4]; first compound 0.1 µM): 0.285
relative viability ([4]; first compound 0.3162 µM): 0.305
relative viability ([4]; first compound 1 µM): 0.298

— the supplement of paper PMC10307832
